Assay: Solubility of clioquinol in an aqueous medium
Type: physicochemical
Text: The invention also includes a process to dissolve, stabilize and incorporate clioquinol into an intranasal preparation. Clioquinol dissolves in DMSO. However, it precipitates upon the addition of an aqueous vehicle to that combination. In order to dissolve in an aqueous medium clioquinol requires a pH of approximately 11. A buffering system was developed that maintains the solubility and stability of clioquinol within a pH 7-8 which is compatible with the physiological pH oh the nasal tissue. The buffering system was adjusted to provide a capacity of pH 5-7, within which the preparation will be contained within 7-8 pH. The choice of the buffering system was based on the safety, chemical and physical effects of its ingredients on clioquinol and the other ingredients incorporated in the formula, as well as its effects on the end user of present pharmaceutical composition. The buffer system comprises boric acid and sodium carbonate in certain proportions to produce a protective pH 7-8 at which clioquinol stays physically and chemically stable.

With `Oc1c(I)cc(Cl)c2cccnc12` [Clioquinol] as the compound, how does the “pH required to dissolve in an aqueous medium” value read?
Its value is “approximately 11”.

Source: patent US8987199B2, “Pharmaceutical compositions for intranasal administration for the treatment of neurodegenerative disorders” (Nerve Access, Inc., priority 2011, dated 2015)
